Reference: ChEMBL document CHEMBL1201862, “PubChem BioAssay data set” (2004)
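Tested at 5 concentrations; 48 h exposure; 96-well plates; endpoints linearly interpolated, else capped at highest concentration. GI50 = concentration required for 50% inhibition of growth.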 The source made the active and inactive calls. No stated cut-off is given here; in the data, active = GI50 up to about 1.1 µM and inactive = higher.

Experiments:
Experiment in all cases: growth of human tumour cells (NCI), 48 h
UO-31 = test system: UO-31
SK-OV-3 = test system: SK-OV-3
OVCAR-5 = test system: OVCAR-5
SK-MEL-2 = test system: SK-MEL-2
TK-10 = test system: TK-10
OVCAR-3 = test system: OVCAR-3
SW-620 = test system: SW-620
Malme-3M = test system: Malme-3M
SF-295 = test system: SF-295
OVCAR-8 = test system: OVCAR-8
NCI-H522 = test system: NCI-H522
NCI-H23 = test system: NCI-H23
SF-268 = test system: SF-268
HCT-116 = test system: HCT-116
SK-MEL-5 = test system: SK-MEL-5
SR = test system: SR
SK-MEL-28 = test system: SK-MEL-28

Measured: GI50

O=C(CCC(=O)C(C(=O)c1ccccc1)c1ccccc1)Nc1cccc(C(F)(F)F)c1 (stereo not given)
inactive: UO-31 > 100 µM | SK-OV-3 > 100 µM | OVCAR-5 > 100 µM | SK-MEL-2 > 100 µM | TK-10 > 100 µM | OVCAR-3 > 100 µM | SW-620 > 100 µM | Malme-3M > 100 µM | SF-295 > 100 µM | OVCAR-8 > 100 µM | NCI-H522 > 100 µM | NCI-H23 > 100 µM | SF-268 > 100 µM | HCT-116 > 100 µM

O=C(CC12C3C4C1C1C2C3C41CC(=O)NO)NO (stereo not given)
inactive: SK-MEL-5 27.4 µM | OVCAR-5 > 100 µM | SR 49.3 µM | SK-MEL-2 > 100 µM | TK-10 > 100 µM | OVCAR-3 34.3 µM | SW-620 38.9 µM | Malme-3M 31 µM | SF-295 27.1 µM | OVCAR-8 33.1 µM | NCI-H522 27.7 µM | SK-MEL-28 60.4 µM | NCI-H23 78.2 µM | SF-268 50 µM | HCT-116 42.4 µM

O=[N+]([O-])C(=C(c1ccccc1)c1ccccc1)[N+](=O)[O-]
inactive: UO-31 22.1 µM | OVCAR-5 19.9 µM | SR 3.29 µM | SK-MEL-2 2.43 µM | TK-10 18.6 µM | OVCAR-3 20.7 µM | SW-620 11.4 µM | SF-295 13.5 µM | OVCAR-8 9.86 µM | NCI-H522 15.4 µM | SK-MEL-28 7.98 µM | NCI-H23 17.4 µM | SF-268 4.57 µM | HCT-116 11.9 µM

Cc1nc2c(n1CCC(C)C)C(=O)c1ccccc1C2=O
inactive: UO-31 24.8 µM | SK-OV-3 38.4 µM | SK-MEL-5 14.6 µM | SR 4.71 µM | SK-MEL-2 17.5 µM | TK-10 41.2 µM | OVCAR-3 23.5 µM | SW-620 37.9 µM | Malme-3M 24.1 µM | SF-295 21.3 µM | OVCAR-8 27.9 µM | NCI-H522 20.5 µM | SK-MEL-28 17.3 µM | NCI-H23 22.3 µM | SF-268 14.3 µM | HCT-116 6.84 µM

CC(=O)Nc1ccc(OCC(O)CO)cc1 (stereo not given)
inactive: UO-31 > 100 µM | SK-OV-3 > 100 µM | SK-MEL-5 > 100 µM | OVCAR-5 > 100 µM | SR > 100 µM | SK-MEL-2 > 100 µM | TK-10 > 100 µM | OVCAR-3 > 100 µM | SW-620 8.3 µM | Malme-3M > 100 µM | SF-295 > 100 µM | OVCAR-8 > 100 µM | NCI-H522 > 100 µM | SK-MEL-28 > 100 µM | NCI-H23 > 100 µM | SF-268 > 100 µM | HCT-116 > 100 µM

O=C(CCN(CCO)CCO)Nc1ccc2c(c1)C(=O)c1ccc(NC(=O)CCN(CCO)CCO)cc1C2=O
inactive: UO-31 10.4 µM | SK-OV-3 14.9 µM | SK-MEL-5 17.2 µM | OVCAR-5 > 100 µM | SR 14.8 µM | SK-MEL-2 3.37 µM | TK-10 13.4 µM | OVCAR-3 16.1 µM | SW-620 6.73 µM | Malme-3M 12.8 µM | SF-295 > 100 µM | OVCAR-8 14 µM | NCI-H522 5.89 µM | SK-MEL-28 15.1 µM | NCI-H23 38.7 µM | SF-268 12.2 µM | HCT-116 7.36 µM

CN/N=C(\C)CC(=O)Nc1cccc(Cl)c1C
inactive: UO-31 > 100 µM | SK-OV-3 > 100 µM | SK-MEL-5 > 100 µM | OVCAR-5 > 100 µM | SR 28.6 µM | SK-MEL-2 > 100 µM | TK-10 > 100 µM | OVCAR-3 > 100 µM | Malme-3M > 100 µM | SF-295 > 100 µM | OVCAR-8 > 100 µM | NCI-H522 38.6 µM | SK-MEL-28 > 100 µM | NCI-H23 > 100 µM | SF-268 > 100 µM | HCT-116 > 100 µM

COCOCc1cc(OCc2ccccc2)c(OC)cc1Br
inactive: SK-MEL-5 61.1 µM | OVCAR-5 > 100 µM | SR 63.1 µM | SK-MEL-2 > 100 µM | TK-10 > 100 µM | OVCAR-3 > 100 µM | SW-620 > 100 µM | Malme-3M > 100 µM | SF-295 > 100 µM | OVCAR-8 > 100 µM | SK-MEL-28 > 100 µM | NCI-H23 > 100 µM | SF-268 84.9 µM | HCT-116 > 100 µM

COc1ccc2c(C(=O)O)cc3ccccc3c2c1OC
inactive: UO-31 17.2 µM | SK-OV-3 38.5 µM | OVCAR-5 19.1 µM | SR 30.5 µM | SK-MEL-2 30.5 µM | TK-10 19.1 µM | OVCAR-3 16.6 µM | SW-620 19.4 µM | Malme-3M 21.9 µM | SF-295 47 µM | OVCAR-8 22 µM | NCI-H522 13.8 µM | SK-MEL-28 18.5 µM | NCI-H23 22.2 µM | SF-268 19.4 µM | HCT-116 18.6 µM

CCOC(=O)C1N(S(=O)(=O)c2ccc(C)cc2)CCC12c1ccccc1N(C(C)=O)C2c1ccc(OC)c(OC)c1 (stereo not given)
inactive: UO-31 42.7 µM | SK-OV-3 > 100 µM | SK-MEL-5 > 100 µM | OVCAR-5 > 100 µM | TK-10 > 100 µM | OVCAR-3 > 100 µM | SW-620 > 100 µM | Malme-3M > 100 µM | SF-295 > 100 µM | OVCAR-8 > 100 µM | NCI-H522 > 100 µM | SK-MEL-28 > 100 µM | NCI-H23 > 100 µM | SF-268 > 100 µM | HCT-116 47.4 µM

C=CCN1CCC23c4c5ccc(O)c4OC2C(=NN=C2CCC4(O)C6Cc7ccc(O)c8c7C4(CCN6CC=C)C2O8)CCC3(O)C1C5 (stereo not given)
inactive: UO-31 > 100 µM | SK-OV-3 37.5 µM | SK-MEL-5 20.4 µM | OVCAR-5 66.5 µM | SK-MEL-2 18 µM | TK-10 21.6 µM | OVCAR-3 18.5 µM | SW-620 21.4 µM | Malme-3M 19.1 µM | SF-295 20.7 µM | OVCAR-8 25.6 µM | NCI-H522 31 µM | SK-MEL-28 17.3 µM | NCI-H23 > 100 µM | SF-268 53.8 µM

CCCN(CCC)c1c([N+](=O)[O-])cc(C(N)=O)cc1[N+](=O)[O-]
inactive: UO-31 65.5 µM | SK-OV-3 58.3 µM | SK-MEL-5 1.16 µM | OVCAR-5 > 100 µM | SK-MEL-2 74.5 µM | TK-10 > 100 µM | OVCAR-3 78 µM | Malme-3M 62.1 µM | SF-295 > 100 µM | OVCAR-8 92.9 µM | NCI-H522 36.7 µM | SK-MEL-28 > 100 µM | NCI-H23 > 100 µM | SF-268 > 100 µM | HCT-116 > 100 µM

Cc1ccccc1NC(=O)C(=O)c1c(O)c2ccc(O)cc2oc1=O
inactive: UO-31 > 100 µM | SK-OV-3 > 100 µM | SK-MEL-5 > 100 µM | SK-MEL-2 > 100 µM | TK-10 > 100 µM | OVCAR-3 > 100 µM | SW-620 > 100 µM | Malme-3M > 100 µM | OVCAR-8 > 100 µM | NCI-H522 > 100 µM | SK-MEL-28 > 100 µM | NCI-H23 > 100 µM | SF-268 > 100 µM | HCT-116 > 100 µM

O=C(NCC#CCO)C(F)(F)F
inactive: UO-31 > 100 µM | SK-OV-3 97.5 µM | SK-MEL-5 > 100 µM | OVCAR-5 > 100 µM | SR > 100 µM | SK-MEL-2 > 100 µM | TK-10 > 100 µM | SW-620 > 100 µM | Malme-3M > 100 µM | SF-295 > 10 µM | OVCAR-8 > 100 µM | NCI-H522 > 100 µM | SK-MEL-28 > 100 µM | NCI-H23 > 100 µM | SF-268 > 100 µM | HCT-116 > 100 µM

Cc1nc2c(N)ncnc2o1
inactive: UO-31 > 100 µM | SK-OV-3 > 100 µM | SK-MEL-5 > 100 µM | OVCAR-5 > 100 µM | SK-MEL-2 > 100 µM | TK-10 > 100 µM | OVCAR-3 > 100 µM | SW-620 > 100 µM | Malme-3M > 100 µM | SF-295 > 100 µM | OVCAR-8 > 100 µM | NCI-H522 > 100 µM | SK-MEL-28 > 100 µM | NCI-H23 > 100 µM | SF-268 > 100 µM | HCT-116 > 100 µM

Cc1cc2c(=O)c3ccc(Cl)cc3[nH]c2c(C(=O)O)c1C
inactive: UO-31 46.1 µM | SK-OV-3 > 100 µM | SK-MEL-5 > 100 µM | OVCAR-5 > 100 µM | SK-MEL-2 > 100 µM | TK-10 > 100 µM | OVCAR-3 > 100 µM | SW-620 > 100 µM | Malme-3M > 100 µM | SF-295 > 100 µM | OVCAR-8 > 100 µM | NCI-H522 73.8 µM | SK-MEL-28 > 100 µM | NCI-H23 > 100 µM | SF-268 > 100 µM | HCT-116 > 100 µM

COc1ccc(-c2onc(-c3ccc([N+](=O)[O-])cc3)c2C2=NCCN2)cc1
inactive: UO-31 29.6 µM | SK-MEL-5 83.6 µM | OVCAR-5 > 100 µM | SR > 100 µM | SK-MEL-2 > 100 µM | OVCAR-3 > 100 µM | SW-620 > 100 µM | Malme-3M > 100 µM | SF-295 35.2 µM | OVCAR-8 > 100 µM | NCI-H522 > 10 µM | SK-MEL-28 > 100 µM | NCI-H23 > 100 µM | SF-268 72.3 µM | HCT-116 36 µM

O=C(O)c1cc2sc(C(=O)O)cc2s1
inactive: UO-31 > 10 µM | SK-OV-3 > 100 µM | SK-MEL-5 > 100 µM | OVCAR-5 > 100 µM | SR > 100 µM | TK-10 > 100 µM | OVCAR-3 > 100 µM | SW-620 > 100 µM | Malme-3M > 100 µM | SF-295 > 100 µM | NCI-H522 > 100 µM | NCI-H23 > 100 µM | SF-268 > 100 µM | HCT-116 > 100 µM
